Experimental data published in US6376497B1, “Antifungal azole derivatives having a fluorinated vinyl group and process for preparing same” (Korea Research Institute of Chemical Technology, priority 1999, dated 2002).
Each block holds one compound with its values, some of them ahead of it.

Key:
Test in all cases: In vitro antifungal activity, microbroth dilution MIC
Type in all cases: cell-based
Settings in all cases: RPMI-1640, 35° C., 4 to 48 hours, no growth observed
[1] = system: Cryptococcus neoformans IFM. 40092
Method in brief: (§1)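 Broth microdilution adapted from NCCLS M27, in RPMI-1640 with 0.165 M MOPS, pH 7.0. Yeast or mould inoculum at 2×10^3 CFU/ml was mixed 1:1 with DMSO-derived compound solutions (200 to 0.10 μg/ml before mixing) and incubated at 35 °C for 4 to 48 h. MIC was the concentration showing no growth.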

[2] = system: Aspergillus niger A. 16404
Method in brief: as §1

[3] = system: Candida tropicalis A. 13803
Method in brief: as §1

[4] = system: Candida albicans IFO. 1385
Method in brief: as §1

[5] = system: Torulopsis glabrata B. 16205
Method in brief: as §1

Candida albicans C1-2 = system: Candida albicans C1-2
Method in brief: as §1

[6] = system: Trichophyton mentagrophytes B. 32663
Method in brief: as §1

[7] = system: Trichophyton mentagrophytes A. 9129
Method in brief: as §1

[8] = system: Aspergillus furnigatus B. 19119
Method in brief: as §1

[9] = system: Candida albicans A. 10231
Method in brief: as §1

Candida krusei K. 11655 = system: Candida krusei K. 11655
Method in brief: as §1

[10] = system: Candida pseudotropicalis K. 11658
Method in brief: as §1

[11] = system: Candida parapsitosis A. 7330
Method in brief: as §1

[12] = system: Cryptococcus neoformans A. 34144
Method in brief: as §1

[13] = system: Cryptococcus neoformans B. 42419
Method in brief: as §1

SMILES: FC(Oc1ccc(OCC2COC(Cn3ccnc3)(c3ccc(Cl)cc3Cl)O2)cc1)=C(c1cccc(C(F)(F)F)c1)C(F)(F)F (mixture of isomers) [Ex. 96]
- Minimal inhibitory concentration(MIC), Cry. neoformans IFM. 40092 [1]: 0.39 µg/mL
- Minimal inhibitory concentration(MIC), A. niger A. 16404 [2]: >100 µg/mL
- Minimal inhibitory concentration(MIC), C. tropicalis A. 13803 [3]: >100 µg/mL
- Minimal inhibitory concentration(MIC), C. albicans IFO. 1385 [4]: 3.13 µg/mL
- Minimal inhibitory concentration(MIC), T. glabrata B. 16205 [5]: 100 µg/mL
- Minimal inhibitory concentration(MIC), C. albicans C1-2 (Candida albicans C1-2): 100 µg/mL
- Minimal inhibitory concentration(MIC), T. mentagrophytes B. 32663 [6]: 6.25 µg/mL
- Minimal inhibitory concentration(MIC), T. mentagrophytes A. 9129 [7]: 12.5 µg/mL
- Minimal inhibitory concentration(MIC), A furnigatus B. 19119 [8]: 100 µg/mL
- Minimal inhibitory concentration(MIC), C. albicans A. 10231 [9]: 100 µg/mL
- Minimal inhibitory concentration(MIC), C. krusei K. 11655 (Candida krusei K. 11655): >100 µg/mL
- Minimal inhibitory concentration(MIC), C. pseudotropicalis K. 11658 [10]: >100 µg/mL
- Minimal inhibitory concentration(MIC), C. parapsitosis A. 7330 [11]: >100 µg/mL
- Minimal inhibitory concentration(MIC), Cry. neoformans A. 34144 [12]: 3.13 µg/mL
- Minimal inhibitory concentration(MIC), Cry. neoformans B. 42419 [13]: 3.13 µg/mL

SMILES: FC(Oc1ccc(OCC2COC(Cn3ccnc3)(c3ccc(Cl)cc3Cl)O2)cc1)=C(c1ccc(C(F)(F)F)cc1)C(F)(F)F (mixture of isomers) [Ex. 97]
- Minimal inhibitory concentration(MIC), Cry. neoformans IFM. 40092 [1]: 0.78 µg/mL
- Minimal inhibitory concentration(MIC), A. niger A. 16404 [2]: >100 µg/mL
- Minimal inhibitory concentration(MIC), C. tropicalis A. 13803 [3]: >100 µg/mL
- Minimal inhibitory concentration(MIC), C. albicans IFO. 1385 [4]: 3.13 µg/mL
- Minimal inhibitory concentration(MIC), T. glabrata B. 16205 [5]: 100 µg/mL
- Minimal inhibitory concentration(MIC), C. albicans C1-2 (Candida albicans C1-2): >100 µg/mL
- Minimal inhibitory concentration(MIC), T. mentagrophytes B. 32663 [6]: 12.5 µg/mL
- Minimal inhibitory concentration(MIC), T. mentagrophytes A. 9129 [7]: 25.0 µg/mL
- Minimal inhibitory concentration(MIC), A furnigatus B. 19119 [8]: >100 µg/mL
- Minimal inhibitory concentration(MIC), C. albicans A. 10231 [9]: >100 µg/mL
- Minimal inhibitory concentration(MIC), C. krusei K. 11655 (Candida krusei K. 11655): >100 µg/mL
- Minimal inhibitory concentration(MIC), C. pseudotropicalis K. 11658 [10]: >100 µg/mL
- Minimal inhibitory concentration(MIC), C. parapsitosis A. 7330 [11]: >100 µg/mL
- Minimal inhibitory concentration(MIC), Cry. neoformans A. 34144 [12]: 3.13 µg/mL
- Minimal inhibitory concentration(MIC), Cry. neoformans B. 42419 [13]: 3.13 µg/mL

SMILES: COc1ccc(C(=C(F)Oc2ccc(OCC3COC(Cn4ccnc4)(c4ccc(Cl)cc4Cl)O3)cc2)C(F)(F)F)cc1 (mixture of isomers) [Ex. 98]
- Minimal inhibitory concentration(MIC), Cry. neoformans IFM. 40092 [1]: 0.78 µg/mL
- Minimal inhibitory concentration(MIC), A. niger A. 16404 [2]: >100 µg/mL
- Minimal inhibitory concentration(MIC), C. tropicalis A. 13803 [3]: >100 µg/mL
- Minimal inhibitory concentration(MIC), C. albicans IFO. 1385 [4]: 3.13 µg/mL
- Minimal inhibitory concentration(MIC), T. glabrata B. 16205 [5]: 50 µg/mL
- Minimal inhibitory concentration(MIC), C. albicans C1-2 (Candida albicans C1-2): 100 µg/mL
- Minimal inhibitory concentration(MIC), T. mentagrophytes B. 32663 [6]: 6.25 µg/mL
- Minimal inhibitory concentration(MIC), T. mentagrophytes A. 9129 [7]: 25.0 µg/mL
- Minimal inhibitory concentration(MIC), A furnigatus B. 19119 [8]: >100 µg/mL
- Minimal inhibitory concentration(MIC), C. albicans A. 10231 [9]: 50.0 µg/mL
- Minimal inhibitory concentration(MIC), C. krusei K. 11655 (Candida krusei K. 11655): >100 µg/mL
- Minimal inhibitory concentration(MIC), C. pseudotropicalis K. 11658 [10]: >100 µg/mL
- Minimal inhibitory concentration(MIC), C. parapsitosis A. 7330 [11]: >100 µg/mL
- Minimal inhibitory concentration(MIC), Cry. neoformans A. 34144 [12]: 3.13 µg/mL
- Minimal inhibitory concentration(MIC), Cry. neoformans B. 42419 [13]: 6.25 µg/mL

SMILES: FC(Oc1ccc(OCC2COC(Cn3ccnc3)(c3ccc(Cl)cc3Cl)O2)cc1)=C(c1ccc2c(c1)OCO2)C(F)(F)F (mixture of isomers) [Ex. 99]
- Minimal inhibitory concentration(MIC), Cry. neoformans IFM. 40092 [1]: 0.78 µg/mL
- Minimal inhibitory concentration(MIC), A. niger A. 16404 [2]: >100 µg/mL
- Minimal inhibitory concentration(MIC), C. tropicalis A. 13803 [3]: >100 µg/mL
- Minimal inhibitory concentration(MIC), C. albicans IFO. 1385 [4]: 3.13 µg/mL
- Minimal inhibitory concentration(MIC), T. glabrata B. 16205 [5]: 100 µg/mL
- Minimal inhibitory concentration(MIC), C. albicans C1-2 (Candida albicans C1-2): >100 µg/mL
- Minimal inhibitory concentration(MIC), T. mentagrophytes B. 32663 [6]: 25.0 µg/mL
- Minimal inhibitory concentration(MIC), T. mentagrophytes A. 9129 [7]: 50.0 µg/mL
- Minimal inhibitory concentration(MIC), A furnigatus B. 19119 [8]: >100 µg/mL
- Minimal inhibitory concentration(MIC), C. albicans A. 10231 [9]: 100 µg/mL
- Minimal inhibitory concentration(MIC), C. krusei K. 11655 (Candida krusei K. 11655): >100 µg/mL
- Minimal inhibitory concentration(MIC), C. pseudotropicalis K. 11658 [10]: >100 µg/mL
- Minimal inhibitory concentration(MIC), C. parapsitosis A. 7330 [11]: >100 µg/mL
- Minimal inhibitory concentration(MIC), Cry. neoformans A. 34144 [12]: 3.13 µg/mL
- Minimal inhibitory concentration(MIC), Cry. neoformans B. 42419 [13]: 3.13 µg/mL

Now from value to compound:

- Minimal inhibitory concentration(MIC), Cry. neoformans IFM. 40092 [1]: 1.56 µg/mL
- Minimal inhibitory concentration(MIC), A. niger A. 16404 [2]: >100 µg/mL
- Minimal inhibitory concentration(MIC), C. tropicalis A. 13803 [3]: >100 µg/mL
- Minimal inhibitory concentration(MIC), C. albicans IFO. 1385 [4]: 6.25 µg/mL
- Minimal inhibitory concentration(MIC), T. glabrata B. 16205 [5]: >100 µg/mL
- Minimal inhibitory concentration(MIC), C. albicans C1-2 (Candida albicans C1-2): 100 µg/mL
- Minimal inhibitory concentration(MIC), T. mentagrophytes B. 32663 [6]: 100 µg/mL
- Minimal inhibitory concentration(MIC), T. mentagrophytes A. 9129 [7]: 100 µg/mL
- Minimal inhibitory concentration(MIC), A furnigatus B. 19119 [8]: >100 µg/mL
- Minimal inhibitory concentration(MIC), C. albicans A. 10231 [9]: 50.0 µg/mL
- Minimal inhibitory concentration(MIC), C. krusei K. 11655 (Candida krusei K. 11655): >100 µg/mL
- Minimal inhibitory concentration(MIC), C. pseudotropicalis K. 11658 [10]: >100 µg/mL
- Minimal inhibitory concentration(MIC), C. parapsitosis A. 7330 [11]: >100 µg/mL
- Minimal inhibitory concentration(MIC), Cry. neoformans A. 34144 [12]: 6.25 µg/mL
- Minimal inhibitory concentration(MIC), Cry. neoformans B. 42419 [13]: 12.5 µg/mL
SMILES: FC(Oc1ccc(OCC2COC(Cn3ccnc3)(c3ccc(Cl)cc3Cl)O2)cc1)=C(c1ccc(Oc2ccccc2)cc1)C(F)(F)F (mixture of isomers) [Ex. 100]

- Minimal inhibitory concentration(MIC), Cry. neoformans IFM. 40092 [1]: 0.78 µg/mL
- Minimal inhibitory concentration(MIC), A. niger A. 16404 [2]: >100 µg/mL
- Minimal inhibitory concentration(MIC), C. tropicalis A. 13803 [3]: >100 µg/mL
- Minimal inhibitory concentration(MIC), C. albicans IFO. 1385 [4]: 3.13 µg/mL
- Minimal inhibitory concentration(MIC), T. glabrata B. 16205 [5]: 25.0 µg/mL
- Minimal inhibitory concentration(MIC), C. albicans C1-2 (Candida albicans C1-2): 50.0 µg/mL
- Minimal inhibitory concentration(MIC), T. mentagrophytes B. 32663 [6]: 12.5 µg/mL
- Minimal inhibitory concentration(MIC), T. mentagrophytes A. 9129 [7]: 25.0 µg/mL
- Minimal inhibitory concentration(MIC), A furnigatus B. 19119 [8]: 50.0 µg/mL
- Minimal inhibitory concentration(MIC), C. albicans A. 10231 [9]: 25.0 µg/mL
- Minimal inhibitory concentration(MIC), C. krusei K. 11655 (Candida krusei K. 11655): >100 µg/mL
- Minimal inhibitory concentration(MIC), C. pseudotropicalis K. 11658 [10]: >100 µg/mL
- Minimal inhibitory concentration(MIC), C. parapsitosis A. 7330 [11]: >100 µg/mL
- Minimal inhibitory concentration(MIC), Cry. neoformans A. 34144 [12]: 3.13 µg/mL
- Minimal inhibitory concentration(MIC), Cry. neoformans B. 42419 [13]: 3.13 µg/mL
SMILES: FC(Oc1ccc(OCC2COC(Cn3ccnc3)(c3ccc(Cl)cc3Cl)O2)cc1)=C(c1cccc(Cl)c1)C(F)(F)F (mixture of isomers) [Ex. 101]
